The results in this text go back to patent US12338203B2 (TAISHO PHARMACEUTICAL CO., LTD., priority 2019, dated 2025).

SMILES strings stand for the structures.

For this experiment, the target named is T1, human LPAR1 (Homo sapiens, UniProt Q92633).
T1 construct: expressed in transfected cells
The experiment in a line: Test Example 1: antagonism against response of LPA-induced increase in intracellular Ca2+ concentration in RH7777 cells stably expressing human LPAR1. The class given is cell-based. The following applies: RH7777 cells stably expressing human LPAR1; Fluo-4 fluorescence, FDSS6000; read-out: IC50 value (concentration producing 50% antagonism against response of LPA-induced increase in intracellular Ca2+ concentration) (converted). In a few lines: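 RH7777 cells stably transfected with human LPAR1 were preincubated with test compound 30 min at 37 °C in HBSS/20 mM HEPES/probenecid/0.05% BSA buffer, pH 7.4, then LPA-stimulated.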

T1 sequence (Q92633 whole entry): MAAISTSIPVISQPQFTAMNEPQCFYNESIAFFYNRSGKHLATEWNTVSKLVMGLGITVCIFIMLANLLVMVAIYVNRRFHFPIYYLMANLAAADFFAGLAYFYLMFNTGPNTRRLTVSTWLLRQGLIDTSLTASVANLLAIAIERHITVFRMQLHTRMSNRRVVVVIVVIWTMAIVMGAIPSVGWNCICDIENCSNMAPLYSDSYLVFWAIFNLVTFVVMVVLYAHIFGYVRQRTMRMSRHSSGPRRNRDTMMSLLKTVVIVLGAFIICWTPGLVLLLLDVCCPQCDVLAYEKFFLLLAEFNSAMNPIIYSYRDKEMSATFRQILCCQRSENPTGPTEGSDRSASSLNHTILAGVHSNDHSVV

For the compound `COc1cc([C@@H](C)N(CCCCc2ccccc2)C(=O)NC2(C(=O)O)CC(F)(F)C2)cc(OC)c1C` [Example 1-67], the IC50 was 1.6 nM.
The figure for `CC(c1ccc2c(c1)OCCO2)N(CCCCc1ccccc1)C(=O)NC1(C(=O)O)CC(F)(F)C1` (centres unmarked) [Example 5-91] is 711 nM; for `CCOc1cc([C@@H](C)N(CCCCc2ccccc2)C(=O)NC2(c3nn[nH]n3)CC(F)(F)C2)c(Cl)c(OCC)c1C(C)O` (some centres unmarked) [Example 10-11] it is 8.1 nM.
The result for `CCOc1cc(C(C)N(CCCCc2ccccc2)C(=O)NC2(P(=O)(O)O)CCCC2)cc(OCC)c1C` (single isomer, unassigned) [Example 8-1, [1-({[1-(3,5-Diethoxy-4-Methylphenyl)Ethyl](4-Phenylbutyl) Carbamoyl}Amino)Cyclopentyl]Phosphonic Acid] reads 52.1 nM.
The figure for `CCOc1cc(C(C)N(CCOC(C)c2ccccc2)C(=O)N[C@]2(c3nn[nH]n3)C[C@@H](OC)C2)cc(OCC)c1C(C)O` (some centres unmarked) [Example 10-17] is 16.7 nM; for `CCOc1cc([C@@H](C)N(CCc2ccc(Cl)cc2)C(=O)NC2(C(=O)O)CC(F)(F)C2)cc(OCC)c1C` [Example 4-11] it is 126 nM.
As for `CCOc1c(C(C)=O)ccc([C@@H](C)N(CCO[C@H](C)c2ccccc2)C(=O)NC2(C(=O)O)CCC2)c1C` [Example 4-148], the IC50 was 3.22 nM.
The result for `CCOc1cc([C@@H](C)N(CCCc2ccc(F)cc2)C(=O)NC2(C(=O)O)CC(F)(F)C2)cc(OCC)c1C` [Example 4-5] reads 6.91 nM.
The figure for `COc1cc(OC)nc(C(C)N(CCCCc2ccccc2)C(=O)NC2(C(=O)O)CC(F)(F)C2)n1` (centres unmarked) [Example 5-87] is 195 nM; for `CCOc1cc([C@@H](C)N(CCO[C@@H](C)c2ccccc2)C(=O)NC2(C(=O)O)CCC2)c(Cl)c(OCC)c1C(C)=O` [Example 5-30] it is 2.15 nM; for `CCOc1cc([C@@H](C)N(CCO[C@@H](C)c2ccccc2)C(=O)NC2(C(=O)O)CC(OC)C2)cc(OCC)c1C(C)O` (some centres unmarked) [Example 4-125] it is 7.11 nM.
The figure for `CCOc1cc(C(C)N(CCO[C@@H](C)c2ccccc2)C(=O)NC2(C(=O)OC(C)(C)C)CC(F)(F)C2)cc(OCC)c1C(C)=O` (some centres unmarked) [Example 6-16] is 13000 nM.
Regarding `CCOc1cc(C(C)N(CCCCc2ccccc2)C(=O)NC2(CC(=O)O)CCCC2)cc(OCC)c1C` (centres unmarked) [Example 1-146], the IC50 is 24.3 nM.
The result for `CCOc1cc(OCC)cc(C(C)N(CCCCc2ccccc2)C(=O)NC2(C(=O)O)CCCC2)c1` (centres unmarked) [Example 5-10] reads 35.4 nM.
The figure for `COc1cc(C(C)N(CCCn2cc(C)cn2)C(=O)NC2(C(=O)O)CC(F)(F)C2)cc(OC)c1C` (centres unmarked) [Example 4-26] is 1830 nM.
Consider `CCOc1cc([C@@H](C)N(CCCC(F)(F)c2ccccc2)C(=O)NC2(C(=O)O)CC2)cc(OCC)c1C(C)O` (some centres unmarked) [Example 4-47], for which the IC50 is 10.5 nM.
In the case of `CCOc1cc(C(C)N(CCCCc2ccccc2)C(=O)NC2(C(=O)O)CC(F)(F)C2)ccc1C(C)O` (centres unmarked) [Example 5-9], the IC50 was 2.82 nM.
On to `CCOc1cc([C@@H](C)N(CCCC(F)(F)c2ccccc2)C(=O)NC2(C(=O)O)CCOCC2)cc(OCC)c1C(C)=O` [Example 4-73], for which the IC50 is 3.68 nM.
Take `CCOc1cc([C@@H](C)N(CCO[C@H](C)c2ccccc2)C(=O)NC2(C(=O)O)CC(F)(F)C2)cc(OCC)c1C1CC1` [Example 4-150]: the IC50 was 1.55 nM.
The result for `CCNc1cc(C(C)N(CCCCc2ccccc2)C(=O)NC2(C(=O)O)CCC2)cc(OCC)c1C(C)=O` (single isomer, unassigned) [Example 5-111] reads 128 nM; that for `CCOc1cc(C(C)N(CCOCc2ccccc2)C(=O)NC2(C(=O)O)CC(F)(F)C2)cc(OCC)c1C1CC1` (centres unmarked) [Example 5-196], 1.41 nM.
The result for `COc1cc(C(CO)N(CCCCc2ccccc2)C(=O)NC2(C(=O)O)Cc3ccccc3C2)cc(OC)c1C` (centres unmarked) [Example 3-9] reads 62.7 nM.
For the compound `CCOc1c(C(C)=O)ccc([C@@H](C)N(CCO[C@@H](C)c2ccccc2)C(=O)NC2(C(=O)O)CCC2)c1C` [Example 4-116], the IC50 is 3.91 nM.
The figure for `CC(=O)c1ccc(C(C)N(CCCCc2ccccc2)C(=O)NC2(C(=O)O)CC(F)(F)C2)cc1` (centres unmarked) [Example 5-4] is 128 nM; for `CCOc1cc([C@@H](C)N(CCCCc2ccccc2)C(=O)NC2(C(=O)O)CC(F)(F)C2)c(Cl)c(OCC)c1C(C)O` (single isomer, unassigned) [Example 5-52] it is 1.95 nM.
The result for `CCOc1cc([C@@H](C)N(CCCCc2ccccc2)C(=O)N[C@]2(C(=O)O)C[C@@H](OC)C2)cc(OCC)c1C(C)=O` [Example 1-86, Trans-1-({[(1R)-1-(4-Acetyl-3,5-Diethoxyphenyl)Ethyl](4-Phenylbutyl) Carbamoyl}Amino)-3-Methoxycyclobutane-1-Carboxylic Acid] reads 2.33 nM; that for `CCOc1cc([C@@H](C)N(CCCCc2ccccc2)C(=O)NC2(C(=O)O)CCCC2)cc(OCC)c1C` [Example 1-113], 4.09 nM; that for `CCOc1c(C(C)=O)ccc([C@@H](C)N(CCCC(F)(F)c2ccccc2)C(=O)NC2(C(=O)O)CCC2)c1C` [Example 4-54], 3.75 nM.
The result for `CCOc1cc([C@@H](C)N(CCCCc2ccccc2)C(=O)NC2(C(=O)O)CC(OC)C2)cc(OCC)c1C(C)=O` (stereo partly drawn) [Example 1-85, 1-({[(1R)-1-(4-Acetyl-3,5-Diethoxyphenyl)Ethyl](4-Phenylbutyl) Carbamoyl}Amino)-3-Methoxycyclobutane-1-Carboxylic Acid] reads 2.53 nM; that for `CCOc1c(C(C)=O)ccc([C@@H](C)N(CCO[C@@H](C)c2ccccc2)C(=O)NC2(C(=O)O)CC(OC)C2)c1C` (some centres unmarked) [Example 4-131], 10.3 nM; that for `CCOc1cc(C(C)N(CCCCc2ccccc2)C(=O)NC2(C(=O)O)CC(F)(F)C2)c2ccn(CC)c2c1` (centres unmarked) [Example 5-95], 7.22 nM.
`CCOc1cc([C@@H](C)N(CCCC(F)(F)c2ccccc2)C(=O)NC2(C(=O)O)CCC2)cc(OCC)c1C1CC1` [Example 4-51]: the IC50 was 1.11 nM.
The figure for `CCOc1cc(C(C)N(CCO[C@@H](C)c2ccccc2)C(=O)NC2(C(=O)OC)CC(F)(F)C2)c(Cl)c(OCC)c1C(C)=O` (some centres unmarked) [Example 6-7] is 443 nM; for `COc1cc(C(C)N(CCOCc2ccccc2)C(=O)NC2(C(=O)O)CC(F)(F)C2)c(C)c(OC)c1C(C)=O` (centres unmarked) [Example 5-145] it is 2.43 nM.
Take `COc1cc(C(C)N(CCOC(C)c2ccccc2)C(=O)N[C@]2(C(=O)O)C[C@@H](OC)C2)c(C)c(OC)c1C` (some centres unmarked) [Example 5-160]: the IC50 was 4.55 nM.
The figure for `CCOc1cc(C(C)N(CCCCc2ccccc2)C(=O)NC2(C(=O)O)CC(F)(F)C2)cc(OCC)c1C(C)=O` (centres unmarked) [Example 1-56] is 33 nM; for `CCOc1cc(C(C)N(CCOCc2ccccc2)C(=O)N[C@]2(C(=O)O)C[C@@H](OCC)C2)c(C)c(OCC)c1C(C)=O` (some centres unmarked) [Example 5-214] it is 1.92 nM.
With `CCOc1cc([C@@H](C)N(CCC(F)(F)Cc2ccccc2)C(=O)N[C@]2(C(=O)O)C[C@@H](OC)C2)cc(OCC)c1C1CC1` [Example 4-91], the IC50 is 1.97 nM.
On to `CCOc1cc([C@@H](C)N(CCO[C@@H](C)c2cccc(Cl)c2)C(=O)NC2(C(=O)O)CCC2)c(Cl)c(OCC)c1C(C)=O` [Example 4-176], for which the IC50 was 15.3 nM.
The figure for `CCOc1cc([C@@H](C)N(CCO[C@@H](C)c2ccccc2)C(=O)NC2(C(=O)O)CC(OC)C2)c(Cl)c(OCC)c1C(C)O` (single isomer, unassigned) [Example 5-57] is 4.08 nM; for `CCOc1cc([C@@H](C)N(CCCCc2ccccc2)C(=O)NC2(C(=O)O)CC(O)C2)cc(OCC)c1C` (some centres unmarked) [Example 1-106] it is 8.72 nM; for `CCOc1c(C2CC2)ccc([C@@H](C)N(CCO[C@H](C)c2ccccc2)C(=O)NC2(C(=O)O)CC(F)(F)C2)c1C` [Example 4-172] it is 2.43 nM.
The result for `CCOc1cc(C(C)N(CCO[C@@H](C)c2ccccc2)C(=O)N[C@]2(C(=O)O)C[C@@H](OCC)C2)c(Cl)c(OCC)c1C(C)=O` (some centres unmarked) [Example 5-218] reads 1.99 nM.
The figure for `COc1cc(C(C)N(CCO[C@@H](C)c2ccccc2)C(=O)NC2(C(=O)O)CCOCC2)c(Cl)c(OC)c1C1CC1` (some centres unmarked) [Example 5-180] is 6.4 nM; for `CCOc1cc([C@@H](C)N(CCC(F)(F)Cc2ccccc2)C(=O)NC2(C(=O)O)CCC2)cc(OCC)c1C1CC1` [Example 4-82] it is 4.1 nM; for `CCOc1cc([C@@H](C)N(CCCc2ccccc2)C(=O)NC2(C(=O)O)CC(F)(F)C2)cc(OCC)c1C(C)=O` [Example 4-35, 1-({[(1R)-1-(4-Acetyl-3,5-Diethoxyphenyl)Ethyl](3-Phenylpropyl) Carbamoyl}Amino)-3,3-Difluorocyclobutane-1-Carboxylic Acid] it is 2.26 nM.
In the case of `CCOc1cc([C@@H](C)N(CCCCc2ccccc2)C(=O)NC2(C(=O)O)CC(N3CCOCC3)C2)cc(OCC)c1C` (some centres unmarked) [Example 1-110], the IC50 was 20.2 nM.
The result for `CCOC(=O)C1(NC(=O)N(CCO[C@@H](C)c2ccccc2)C(C)c2cc(OCC)c(C(C)=O)c(OCC)c2Cl)CC(F)(F)C1` (some centres unmarked) [Example 6-12] reads 1270 nM; that for `CCOc1c(C(C)=O)ccc([C@@H](C)N(CCCCc2ccccc2)C(=O)NC2(C(=O)O)CCOCC2)c1C` [Example 1-156], 3.68 nM; that for `CCOc1cccc(C(C)N(CCCCc2ccccc2)C(=O)NC2(C(=O)O)CC(F)(F)C2)c1` (centres unmarked) [Example 5-3], 45.5 nM.
The result for `CCOc1cc([C@@H](C)N(CCCC(F)(F)c2ccccc2)C(=O)N[C@]2(C(=O)O)C[C@@H](OC)C2)cc(OCC)c1C(C)=O` [Example 4-64] reads 2.69 nM; that for `COc1cc(C(C)N(CCO[C@@H](C)c2ccccc2)C(=O)NC2(C(=O)O)CCC2)cc(OC)c1C1CC1` (some centres unmarked) [Example 5-137], 8.18 nM.
The result for `COc1cc([C@@H](C)N(CCOCc2ccccc2)C(=O)NC2(C(=O)O)CC(F)(F)C2)cc(OC)c1C` [Example 4-164] reads 3.26 nM.
